Target: T1, PDHK2 (recombinant pyruvate dehydrogenase kinase 2) (Homo sapiens, UniProt Q15119)
T1 construct: made in house
Experiment: Fast-TR FRET kinase IMAP assay, ATP dependence of the kinase reaction
Type: biochemical
Settings: 1 μM Alexa-peptide in the kinase reaction; concentration in the kinase reaction (50 times less in readout); FRET readout 730 (30) nm; FIG. 9; read-out: EC50 of ATP dose response curve
Text: • Substrate peptide (YHGHSMSAPGVSTAC (SEQ ID NO: 1)) from Biosyntan labeled with Alexa Fluor 700 • Phosphorylated substrate peptide (YHGHS(H2PO4)MSAPGVSTAC (SEQ ID NO: 1)) from Biosyntan labeled with Alexa Fluor 700 and Ru(batho) 2bpy • Kinase enzyme: PDHK2 (recombinant pyruvate dehydrogenase kinase 2, expressed according to standard methods) • IMAP™ beads from Molecular Devices (IMAP™ Explorer Kit (IPP) Product # R8062) • Buffer: IMAP™ Binding Buffer 1:5 diluted with dest. H2O+0.05% BSA Instrumentation: • Zeiss plate::vision reader • Plate: Costar 384, UV-NBS • Excitation wavelength: 355 nm • Emission filter: 730 (30) nm, 615 (10) nm
1 μl of the PDHK2 enzyme was diluted in 11 μl kinase buffer (25 mM Hepes pH 7.4, 150 mM NaCl, 18.7 mM MgCl2, 0.4 mM NH4Ac, 0.025% Triton X-100, 1.87 mM DTT). […] For the readout the final substrate concentration was 20 nM (phosphorylated) Alexa-peptide and with the final ATP concentration of 2 μM the FRET signal should be easily detectable (FIG. 5). […]
Note that these were the concentrations in the kinase reaction, in the readout they were 50 times less. […] With higher ATP concentrations the signal decreased again due to free ATP in the readout mixture which bound to the IMAP™ beads and thus decreased the binding capacity of the IMAP™ beads. […]

**Q.** Nc1ncnc2c1ncn2[C@@H]1O[C@H](COP(=O)(O)OP(=O)(O)OP(=O)(O)O)[C@@H](O)[C@H]1O [ATP] was tested. Which EC50 did it give?
**A.** The EC50 was 3.6 µM.
